Blank lines part the entries; values can stand above or below the compound they belong to. Active and inactive are the calls of the source.
Tests used:
[1] = biological target: T1, Leucine aminopeptidase (Plasmodium falciparum 3D7, UniProt Q8IL11); experiment: P. falciparum M17LAP inhibitors, primary screen, biochemical, fluorogenic H-Leu-NHMec substrate, 1536-well (AID 1619); type: functional
T1 sequence (Q8IL11 whole entry): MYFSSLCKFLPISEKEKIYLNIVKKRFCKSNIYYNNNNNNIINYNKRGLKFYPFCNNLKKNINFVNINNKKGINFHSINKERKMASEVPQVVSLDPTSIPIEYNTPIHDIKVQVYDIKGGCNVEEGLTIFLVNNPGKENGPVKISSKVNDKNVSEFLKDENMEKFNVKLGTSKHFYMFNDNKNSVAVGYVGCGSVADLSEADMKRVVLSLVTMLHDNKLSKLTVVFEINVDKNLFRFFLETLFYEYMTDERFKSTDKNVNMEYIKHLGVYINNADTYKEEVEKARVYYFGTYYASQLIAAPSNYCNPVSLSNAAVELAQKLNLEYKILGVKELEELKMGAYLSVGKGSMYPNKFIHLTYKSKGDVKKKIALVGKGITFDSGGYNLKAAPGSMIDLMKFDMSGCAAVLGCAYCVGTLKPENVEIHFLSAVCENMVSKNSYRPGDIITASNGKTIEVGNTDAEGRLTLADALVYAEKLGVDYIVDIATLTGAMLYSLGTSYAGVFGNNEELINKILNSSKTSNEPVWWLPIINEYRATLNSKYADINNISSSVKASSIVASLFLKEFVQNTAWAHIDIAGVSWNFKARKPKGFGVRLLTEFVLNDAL

[2] = biological target: T2, Aspartyl aminopeptidase (Plasmodium falciparum 3D7, UniProt Q8I2J3); experiment: Counterscreen for inhibitors of M1 and M17 aminopeptidases: QFRET-based biochemical high throughput dose response assay for inhibitors of the Plasmodium falciparum M18 Aspartyl Aminopeptidase (PFM18AAP). [Related PubChem assays: 1619 (Screening assay (M17LAP inhibitors).), 1445 (Screening assay (M1AAP inhibitors).)]
T2 sequence (Q8I2J3 whole entry): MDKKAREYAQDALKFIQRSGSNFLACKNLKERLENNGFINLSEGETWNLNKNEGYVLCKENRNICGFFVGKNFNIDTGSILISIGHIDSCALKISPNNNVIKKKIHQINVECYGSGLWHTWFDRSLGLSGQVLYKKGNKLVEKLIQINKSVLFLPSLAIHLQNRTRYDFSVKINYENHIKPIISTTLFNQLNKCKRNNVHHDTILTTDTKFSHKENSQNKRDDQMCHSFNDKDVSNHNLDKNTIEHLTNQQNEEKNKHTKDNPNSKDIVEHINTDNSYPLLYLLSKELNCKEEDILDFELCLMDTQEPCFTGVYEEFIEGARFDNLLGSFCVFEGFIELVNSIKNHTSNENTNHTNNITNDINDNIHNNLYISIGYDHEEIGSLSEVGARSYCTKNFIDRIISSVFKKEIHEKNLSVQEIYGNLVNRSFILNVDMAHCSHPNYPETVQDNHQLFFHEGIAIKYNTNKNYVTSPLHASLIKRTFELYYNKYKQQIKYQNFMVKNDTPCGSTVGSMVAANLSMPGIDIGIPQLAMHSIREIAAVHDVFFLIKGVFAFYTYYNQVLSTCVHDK

[3] = biological target: Procathepsin L (Homo sapiens, UniProt P07711); experiment: cathepsin L inhibitors, dose response, counter-screen for M1/M17 aminopeptidase inhibitor project, biochemical, QFRET, 1536-well (AID 2214)
[4] = Late stage counterscreen results from the probe development effort to identify activators of signal transducer and activator of transcription 1 (STAT1): luminescence-based cell-based dose response assay to identify cytotoxic compounds.; type: functional
[5] = biological target: T3, Fatty acid synthase (Homo sapiens, UniProt P49327); experiment: FAS thioesterase domain inhibitors, dose response, biochemical, endpoint fluorescence intensity, uHTS hits (AID 624327); type: functional;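 also: fluorescence from hydrolysis of an O-methyl fluorescein acyl ester substrate by the enzyme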
[6] = biological target: T3, Fatty acid synthase; experiment: FAS thioesterase domain inhibitors, dose response, biochemical, kinetic fluorescence intensity (AID 624326); type: functional;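 also: rate of fluorescence rise from hydrolysis of a fluorogenic O-methyl fluorescein ester substrate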
[7] = biological target: Cytochrome P450 2C19 (Homo sapiens, UniProt P33261); experiment: Cytochrome panel assay with activity outcomes. Panel member name: p450-cyp2c19 Compounds with AC50 equal or less than 10 uM are considered active; type: functional; details: read-out: AC50
[8] = biological target: Cytochrome P450 3A4 (Homo sapiens, UniProt P08684);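 also: CYP3A4 tested as one member of a cytochrome P450 panel screen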
[9] = biological target: Serine/threonine-protein phosphatase PP1-alpha catalytic subunit (Homo sapiens, UniProt P62136); experiment: PP1 phosphatase inhibitors, dose response, biochemical, fluorescence (AID 2394)
[10] = biological target: T4, Serine/threonine-protein phosphatase (Homo sapiens, UniProt Q9BPW0); experiment: PP5 phosphatase inhibitors, dose response, biochemical, fluorescence (AID 2395)
T4 sequence (Q9BPW0 whole entry): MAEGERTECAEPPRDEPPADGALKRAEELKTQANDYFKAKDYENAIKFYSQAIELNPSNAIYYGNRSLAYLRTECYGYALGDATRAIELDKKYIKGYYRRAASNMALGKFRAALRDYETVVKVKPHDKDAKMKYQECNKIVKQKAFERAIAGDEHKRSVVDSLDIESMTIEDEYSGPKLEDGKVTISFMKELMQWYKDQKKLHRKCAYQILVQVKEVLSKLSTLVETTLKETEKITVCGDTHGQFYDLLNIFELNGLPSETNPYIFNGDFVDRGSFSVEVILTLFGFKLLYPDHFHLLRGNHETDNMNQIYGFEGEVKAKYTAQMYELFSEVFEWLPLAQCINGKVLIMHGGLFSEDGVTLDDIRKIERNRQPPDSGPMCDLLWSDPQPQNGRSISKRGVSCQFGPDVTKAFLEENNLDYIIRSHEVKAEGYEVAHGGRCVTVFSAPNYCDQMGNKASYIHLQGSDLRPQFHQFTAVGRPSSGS

[11] = biological target: T5, Apoptotic protease-activating factor 1 (Homo sapiens, UniProt O14727); type: functional
T5 sequence (O14727 whole entry): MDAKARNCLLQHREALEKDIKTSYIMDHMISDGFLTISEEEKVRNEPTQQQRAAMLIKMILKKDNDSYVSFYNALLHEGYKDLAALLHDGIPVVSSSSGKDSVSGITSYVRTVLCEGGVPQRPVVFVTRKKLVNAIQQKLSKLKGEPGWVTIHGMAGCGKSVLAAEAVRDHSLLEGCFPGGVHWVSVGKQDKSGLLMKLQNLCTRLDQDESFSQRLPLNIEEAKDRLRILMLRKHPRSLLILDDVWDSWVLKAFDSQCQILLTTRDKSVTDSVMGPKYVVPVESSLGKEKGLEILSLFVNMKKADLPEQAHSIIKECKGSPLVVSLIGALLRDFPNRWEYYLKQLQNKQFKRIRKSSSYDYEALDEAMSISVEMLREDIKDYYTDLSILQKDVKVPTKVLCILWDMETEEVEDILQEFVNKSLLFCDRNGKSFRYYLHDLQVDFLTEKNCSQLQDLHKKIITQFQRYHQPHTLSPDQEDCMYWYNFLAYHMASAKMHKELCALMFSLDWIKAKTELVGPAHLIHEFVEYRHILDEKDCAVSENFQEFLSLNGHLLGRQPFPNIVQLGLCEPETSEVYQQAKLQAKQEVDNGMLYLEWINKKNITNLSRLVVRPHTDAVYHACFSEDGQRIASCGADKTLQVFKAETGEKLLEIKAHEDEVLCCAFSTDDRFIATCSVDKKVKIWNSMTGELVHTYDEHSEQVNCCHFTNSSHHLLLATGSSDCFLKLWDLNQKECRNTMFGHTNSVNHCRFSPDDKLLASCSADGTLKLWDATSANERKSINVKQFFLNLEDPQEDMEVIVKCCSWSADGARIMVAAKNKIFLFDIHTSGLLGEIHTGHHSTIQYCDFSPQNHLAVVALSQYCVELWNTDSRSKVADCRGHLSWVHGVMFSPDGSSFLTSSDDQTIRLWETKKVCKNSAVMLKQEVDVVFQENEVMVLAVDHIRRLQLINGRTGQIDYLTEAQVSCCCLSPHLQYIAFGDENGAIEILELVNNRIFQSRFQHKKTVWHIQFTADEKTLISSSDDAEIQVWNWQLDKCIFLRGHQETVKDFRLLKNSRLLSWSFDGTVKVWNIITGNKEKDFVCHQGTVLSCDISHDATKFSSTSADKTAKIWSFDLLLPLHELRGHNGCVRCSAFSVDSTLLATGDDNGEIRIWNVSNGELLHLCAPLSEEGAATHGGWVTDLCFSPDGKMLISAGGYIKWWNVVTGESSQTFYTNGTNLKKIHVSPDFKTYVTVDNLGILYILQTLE

[12] = biological target: Ras and Rab interactor 1/Tyrosine-protein kinase ABL1 (Homo sapiens, UniProt P00519+Q13671); type: functional;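 also: biochemical TR-FRET dose-response test measuring inhibition of binding between Rin1 and Abl proteins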
[13] = biological target: T6, Histone-lysine N-methyltransferase NSD2 (Homo sapiens, UniProt O96028); type: biochemical
T6 sequence (O96028 whole entry): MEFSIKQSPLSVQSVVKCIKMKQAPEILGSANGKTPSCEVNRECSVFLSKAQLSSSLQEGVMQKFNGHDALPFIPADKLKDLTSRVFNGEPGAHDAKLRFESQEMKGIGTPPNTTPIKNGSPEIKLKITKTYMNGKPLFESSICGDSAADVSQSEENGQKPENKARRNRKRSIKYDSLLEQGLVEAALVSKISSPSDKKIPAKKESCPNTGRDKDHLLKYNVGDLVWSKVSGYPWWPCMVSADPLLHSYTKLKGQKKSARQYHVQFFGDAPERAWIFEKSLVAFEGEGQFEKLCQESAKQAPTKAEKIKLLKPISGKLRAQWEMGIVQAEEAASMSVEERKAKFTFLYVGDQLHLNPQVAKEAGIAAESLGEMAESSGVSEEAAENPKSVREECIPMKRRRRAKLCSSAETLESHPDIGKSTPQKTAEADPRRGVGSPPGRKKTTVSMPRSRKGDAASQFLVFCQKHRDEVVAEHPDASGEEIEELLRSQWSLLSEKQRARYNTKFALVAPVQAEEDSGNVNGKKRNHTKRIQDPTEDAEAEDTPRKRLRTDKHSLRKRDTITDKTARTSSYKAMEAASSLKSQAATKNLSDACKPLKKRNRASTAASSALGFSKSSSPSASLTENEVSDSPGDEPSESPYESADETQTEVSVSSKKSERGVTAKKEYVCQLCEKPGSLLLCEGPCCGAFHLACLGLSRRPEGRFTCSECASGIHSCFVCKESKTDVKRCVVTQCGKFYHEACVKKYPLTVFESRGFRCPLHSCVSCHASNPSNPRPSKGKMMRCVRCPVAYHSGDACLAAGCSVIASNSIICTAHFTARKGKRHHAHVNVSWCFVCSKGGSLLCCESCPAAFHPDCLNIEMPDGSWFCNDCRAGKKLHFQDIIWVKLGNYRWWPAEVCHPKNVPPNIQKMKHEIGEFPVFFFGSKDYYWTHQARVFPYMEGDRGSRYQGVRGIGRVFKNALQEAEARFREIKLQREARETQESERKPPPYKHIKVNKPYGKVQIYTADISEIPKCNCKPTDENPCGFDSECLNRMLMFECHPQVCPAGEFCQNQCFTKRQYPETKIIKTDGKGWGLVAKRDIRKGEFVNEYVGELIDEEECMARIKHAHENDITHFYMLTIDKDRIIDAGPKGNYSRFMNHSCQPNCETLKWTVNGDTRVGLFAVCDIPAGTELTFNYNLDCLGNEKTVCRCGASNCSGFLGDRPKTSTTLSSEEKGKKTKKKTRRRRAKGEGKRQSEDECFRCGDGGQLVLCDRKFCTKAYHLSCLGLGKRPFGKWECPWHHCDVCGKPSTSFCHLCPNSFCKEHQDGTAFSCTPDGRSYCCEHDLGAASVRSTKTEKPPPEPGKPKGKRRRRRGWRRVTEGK

[14] = biological target: T7, Tyrosyl-DNA phosphodiesterase 2 (Homo sapiens, UniProt O95551); experiment: human TDP2 enzyme inhibitors, dose response, biochemical, epi absorbance, IC50 (AID 743297)
T7 sequence (O95551 whole entry): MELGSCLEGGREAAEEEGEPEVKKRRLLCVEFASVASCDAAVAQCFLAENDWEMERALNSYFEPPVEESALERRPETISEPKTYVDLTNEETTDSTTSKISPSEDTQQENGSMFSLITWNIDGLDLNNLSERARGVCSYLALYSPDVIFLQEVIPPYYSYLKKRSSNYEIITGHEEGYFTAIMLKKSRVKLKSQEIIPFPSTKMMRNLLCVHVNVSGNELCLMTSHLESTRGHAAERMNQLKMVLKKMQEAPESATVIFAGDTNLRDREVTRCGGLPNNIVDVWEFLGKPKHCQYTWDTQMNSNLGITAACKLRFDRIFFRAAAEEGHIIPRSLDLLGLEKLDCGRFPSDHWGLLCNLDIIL

Procathepsin L, sequence (P07711 whole entry): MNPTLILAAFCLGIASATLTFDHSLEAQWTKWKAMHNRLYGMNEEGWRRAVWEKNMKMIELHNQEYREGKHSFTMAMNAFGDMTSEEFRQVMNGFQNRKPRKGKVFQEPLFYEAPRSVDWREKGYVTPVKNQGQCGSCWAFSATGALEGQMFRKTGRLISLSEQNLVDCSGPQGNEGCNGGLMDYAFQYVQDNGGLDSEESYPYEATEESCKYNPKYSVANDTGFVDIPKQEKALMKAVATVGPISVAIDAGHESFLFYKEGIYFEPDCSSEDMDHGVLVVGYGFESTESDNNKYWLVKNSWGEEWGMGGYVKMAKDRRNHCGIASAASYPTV
T3 sequence (P49327 whole entry, the tested form may be a part): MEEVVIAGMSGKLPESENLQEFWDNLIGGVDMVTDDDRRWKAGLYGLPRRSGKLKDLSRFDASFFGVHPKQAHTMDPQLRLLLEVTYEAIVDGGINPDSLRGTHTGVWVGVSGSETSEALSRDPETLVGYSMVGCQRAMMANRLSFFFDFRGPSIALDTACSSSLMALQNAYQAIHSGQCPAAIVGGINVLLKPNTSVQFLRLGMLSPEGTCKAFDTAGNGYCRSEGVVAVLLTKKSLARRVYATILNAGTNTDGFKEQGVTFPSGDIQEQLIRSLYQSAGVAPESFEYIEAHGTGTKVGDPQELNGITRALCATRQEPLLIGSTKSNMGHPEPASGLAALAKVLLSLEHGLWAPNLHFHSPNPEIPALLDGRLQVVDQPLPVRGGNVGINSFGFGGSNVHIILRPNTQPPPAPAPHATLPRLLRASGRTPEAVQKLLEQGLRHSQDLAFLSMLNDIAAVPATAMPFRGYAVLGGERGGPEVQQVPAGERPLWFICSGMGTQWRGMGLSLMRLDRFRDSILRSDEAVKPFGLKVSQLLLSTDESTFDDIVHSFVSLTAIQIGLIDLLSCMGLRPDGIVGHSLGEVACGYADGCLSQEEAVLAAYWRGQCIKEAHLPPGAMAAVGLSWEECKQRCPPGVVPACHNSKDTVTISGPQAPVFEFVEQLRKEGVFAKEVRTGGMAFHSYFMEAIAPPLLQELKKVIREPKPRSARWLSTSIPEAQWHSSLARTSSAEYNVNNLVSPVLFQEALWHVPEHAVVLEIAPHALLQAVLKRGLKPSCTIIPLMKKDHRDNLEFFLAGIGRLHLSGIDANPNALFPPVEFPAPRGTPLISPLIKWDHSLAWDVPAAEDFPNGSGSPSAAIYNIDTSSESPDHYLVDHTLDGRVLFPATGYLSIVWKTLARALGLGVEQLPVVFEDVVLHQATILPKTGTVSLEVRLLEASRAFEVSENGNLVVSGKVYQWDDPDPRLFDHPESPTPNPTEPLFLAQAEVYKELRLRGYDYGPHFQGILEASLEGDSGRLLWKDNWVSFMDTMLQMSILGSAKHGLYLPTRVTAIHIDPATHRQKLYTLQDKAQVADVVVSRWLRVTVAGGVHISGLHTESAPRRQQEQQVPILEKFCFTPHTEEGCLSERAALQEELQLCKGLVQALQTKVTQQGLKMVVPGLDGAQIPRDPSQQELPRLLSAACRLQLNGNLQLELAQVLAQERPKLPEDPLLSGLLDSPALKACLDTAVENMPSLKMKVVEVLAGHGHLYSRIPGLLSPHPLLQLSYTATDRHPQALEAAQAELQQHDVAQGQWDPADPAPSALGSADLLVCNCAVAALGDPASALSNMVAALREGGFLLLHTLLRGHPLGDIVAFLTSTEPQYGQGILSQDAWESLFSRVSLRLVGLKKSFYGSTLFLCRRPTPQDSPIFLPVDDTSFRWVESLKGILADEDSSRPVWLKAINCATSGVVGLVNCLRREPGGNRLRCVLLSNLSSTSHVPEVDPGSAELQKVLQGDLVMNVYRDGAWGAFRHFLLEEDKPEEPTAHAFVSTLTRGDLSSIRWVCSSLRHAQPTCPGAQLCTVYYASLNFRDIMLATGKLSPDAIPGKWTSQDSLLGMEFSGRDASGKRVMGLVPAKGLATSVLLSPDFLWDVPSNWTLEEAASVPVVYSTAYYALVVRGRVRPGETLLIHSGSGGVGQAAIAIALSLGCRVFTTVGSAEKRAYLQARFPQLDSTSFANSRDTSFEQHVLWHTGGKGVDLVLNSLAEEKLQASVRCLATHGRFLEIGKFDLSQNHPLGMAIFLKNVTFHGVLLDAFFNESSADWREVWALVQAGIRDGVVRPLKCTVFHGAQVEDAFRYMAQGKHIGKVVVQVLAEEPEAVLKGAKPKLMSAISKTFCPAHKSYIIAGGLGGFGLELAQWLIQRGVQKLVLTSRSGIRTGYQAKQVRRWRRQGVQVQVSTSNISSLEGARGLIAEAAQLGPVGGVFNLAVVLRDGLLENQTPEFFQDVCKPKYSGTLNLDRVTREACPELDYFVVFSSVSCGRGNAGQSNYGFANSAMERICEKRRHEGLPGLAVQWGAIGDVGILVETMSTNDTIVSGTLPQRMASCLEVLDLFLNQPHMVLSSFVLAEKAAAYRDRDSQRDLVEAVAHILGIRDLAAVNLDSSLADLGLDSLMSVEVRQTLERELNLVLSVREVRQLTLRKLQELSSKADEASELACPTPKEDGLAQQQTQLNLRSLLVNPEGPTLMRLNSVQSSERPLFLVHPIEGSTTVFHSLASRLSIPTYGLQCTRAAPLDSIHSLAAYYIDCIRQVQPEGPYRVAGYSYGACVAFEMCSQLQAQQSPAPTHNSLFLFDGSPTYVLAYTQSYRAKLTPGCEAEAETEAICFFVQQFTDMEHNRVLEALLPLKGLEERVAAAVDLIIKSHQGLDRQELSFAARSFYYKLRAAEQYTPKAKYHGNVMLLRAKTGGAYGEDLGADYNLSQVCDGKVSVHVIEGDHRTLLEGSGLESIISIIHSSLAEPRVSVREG
Cytochrome P450 3A4, sequence (P08684 whole entry): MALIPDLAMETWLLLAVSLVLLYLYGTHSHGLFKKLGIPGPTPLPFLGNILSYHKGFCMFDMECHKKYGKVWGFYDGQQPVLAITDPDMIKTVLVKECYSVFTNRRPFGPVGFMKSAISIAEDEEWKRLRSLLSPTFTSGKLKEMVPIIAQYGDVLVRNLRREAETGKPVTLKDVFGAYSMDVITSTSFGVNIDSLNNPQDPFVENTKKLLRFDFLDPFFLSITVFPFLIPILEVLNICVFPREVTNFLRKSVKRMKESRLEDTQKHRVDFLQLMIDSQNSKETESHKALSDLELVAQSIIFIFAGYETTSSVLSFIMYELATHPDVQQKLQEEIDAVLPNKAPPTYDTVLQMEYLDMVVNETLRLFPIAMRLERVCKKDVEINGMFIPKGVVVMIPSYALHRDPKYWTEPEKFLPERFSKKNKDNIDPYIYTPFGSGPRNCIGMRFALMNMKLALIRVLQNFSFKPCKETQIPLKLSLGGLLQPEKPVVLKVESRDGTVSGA
Serine/threonine-protein phosphatase PP1-alpha catalytic subunit, sequence (P62136 whole entry): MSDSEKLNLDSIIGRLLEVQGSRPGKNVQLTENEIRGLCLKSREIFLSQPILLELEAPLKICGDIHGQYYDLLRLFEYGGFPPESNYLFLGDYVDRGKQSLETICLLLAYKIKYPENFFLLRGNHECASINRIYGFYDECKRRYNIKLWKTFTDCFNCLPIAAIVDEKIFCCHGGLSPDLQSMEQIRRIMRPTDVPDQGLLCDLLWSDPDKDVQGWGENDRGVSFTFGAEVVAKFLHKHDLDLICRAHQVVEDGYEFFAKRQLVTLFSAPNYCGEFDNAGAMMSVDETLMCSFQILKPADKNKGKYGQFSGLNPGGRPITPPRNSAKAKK
Cytochrome P450 2C19, sequence (P33261 whole entry): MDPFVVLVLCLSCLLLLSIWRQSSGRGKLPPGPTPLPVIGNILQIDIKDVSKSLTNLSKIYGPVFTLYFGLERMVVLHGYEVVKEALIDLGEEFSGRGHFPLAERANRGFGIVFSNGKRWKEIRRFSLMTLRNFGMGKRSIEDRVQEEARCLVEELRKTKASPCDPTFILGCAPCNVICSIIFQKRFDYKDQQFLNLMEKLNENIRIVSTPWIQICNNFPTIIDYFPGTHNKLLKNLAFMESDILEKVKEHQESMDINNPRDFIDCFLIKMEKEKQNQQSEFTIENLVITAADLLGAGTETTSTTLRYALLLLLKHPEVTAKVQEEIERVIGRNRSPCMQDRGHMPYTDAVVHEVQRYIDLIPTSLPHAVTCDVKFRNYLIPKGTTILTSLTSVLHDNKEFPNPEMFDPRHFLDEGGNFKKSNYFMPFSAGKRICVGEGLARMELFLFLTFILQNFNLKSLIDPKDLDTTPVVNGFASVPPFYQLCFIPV

IC50 [1]: 1.7 µM (active)
IC50 [2]: > 73.5 µM (not active)
IC50 [3]: > 59.6 µM (not active)
SMILES: O=C(O)Cc1ccc(NC(=O)Nc2cccc(Cl)c2)cc1

SMILES: CC(=O)NC(=S)Nc1sc2c(c1C#N)CCCCC2
IC50 [4]: > 55.7 µM (not active)
IC50 [5]: 12.3 µM (active)
IC50 [6]: 13.6 µM (active)

SMILES: Cc1ccc(-c2c(C)sc(NC(=O)C3C4CCC(O4)C3C(=O)O)c2C(=O)OC(C)C)cc1 (configuration not stated)
IC50 [1]: 7.67 µM (active)
IC50 [2]: > 73.5 µM (not active)
IC50 [3]: > 59.6 µM (not active)
AC50 [7]: 28.2 µM (inconclusive)
AC50 [8]: 14.1 µM (inconclusive)

IC50 [9]: > 67 µM (not active)
IC50 [10]: > 22.3 µM (not active)
IC50 [11]: 9.72 µM (active)
IC50 [12]: > 73.5 µM (inactive)
AC50 [13]: 5.35 µM (active)
IC50 [14]: 9.1 µM (active)
SMILES: CC(=O)C(C(C)=O)C1(O)C(=O)c2ccccc2C1=O

Source: ChEMBL document CHEMBL1201862, “PubChem BioAssay data set” (2004)
